Measured values as given in ChEMBL document CHEMBL1149445, “Isolation, synthesis, and anti-tumor activities of a novel class of podocarpic diterpenes” (Bioorg Med Chem Lett, 2006).
Values after ≈ are worked out from the molar mass of the structure shown.

How the values were obtained:
Assay type in all cases: functional, cell-based
A549 = test: Antitumor activity against human lung adenocarcinoma A549 cell line
MCF7 = test: Antitumor activity against human breast adenocarcinoma MCF7 cell line
CNE = test: Antitumor activity against human nasopharyngeal carcinoma CNE cell line
HeLa = test: Antitumor activity against human cervical carcinoma HeLa cell line
[1] = Homo sapiens, A549, read-out: IC50
[2] = Homo sapiens, MCF7, read-out: IC50
[3] = Homo sapiens, CNE, read-out: IC50
[4] = Homo sapiens, HeLa, read-out: IC50

Molecule | IC50 (CNE; [3]) | IC50 (A549; [1]) | IC50 (MCF7; [2]) | IC50 (HeLa; [4]) | IC50 (A549; a549) | IC50 (MCF7; mcf7) | IC50 (CNE; cne) | IC50 (HeLa; hela)
CC1(C)CCC[C@]2(C)c3cc(O)c(OCc4cccc([N+](=O)[O-])c4)cc3CC[C@H]12 | > 50 µg/mL | > 50 µg/mL | > 50 µg/mL | 18.6 µg/mL (≈ 47 µM) | – | – | – | –
CC1(C)CCC[C@]2(C)c3cc(O)c(OCc4ccc(Cl)cc4)cc3CC[C@H]12 | > 50 µg/mL | > 50 µg/mL | > 50 µg/mL | > 50 µg/mL | – | – | – | –
CC1(C)CCC[C@]2(C)c3cc(O)c(O)cc3CC[C@H]12 | 3.6 µg/mL (≈ 13.8 µM) | 5.7 µg/mL (≈ 21.9 µM) | 9.6 µg/mL (≈ 36.9 µM) | 10.9 µg/mL (≈ 41.9 µM) | – | – | – | –
CC1(C)CCC[C@]2(C)c3cc(O)c(O)cc3C(=O)C(=O)[C@H]12 | 9.1 µg/mL (≈ 31.6 µM) | 25.8 µg/mL (≈ 89.5 µM) | 24.8 µg/mL (≈ 86 µM) | 18 µg/mL (≈ 62.4 µM) | – | – | – | –
CC1(C)CCC[C@]2(C)c3cc(O)c(O)cc3C(=O)C[C@@H]12 | 22.1 µg/mL (≈ 80.6 µM) | > 50 µg/mL | > 50 µg/mL | 27.7 µg/mL (≈ 101 µM) | – | – | – | –
CC1(C)CCC[C@]2(C)c3cc(O)c(OCc4ccc(Cl)cc4)cc3CC[C@@H]12 | > 50 µg/mL | > 50 µg/mL | > 50 µg/mL | > 50 µg/mL | – | – | – | –
CC1(C)CCC[C@]2(C)c3cc(O)c(OCc4ccccc4F)cc3CC[C@@H]12 | > 50 µg/mL | > 50 µg/mL | > 50 µg/mL | > 50 µg/mL | – | – | – | –
CC1(C)CCC[C@]2(C)c3cc(O)c(OCc4cccc([N+](=O)[O-])c4)cc3CC[C@@H]12 | > 50 µg/mL | > 50 µg/mL | > 50 µg/mL | > 50 µg/mL | – | – | – | –
CC1(C)CCC[C@]2(C)c3cc(O)c(OCc4ccccc4F)cc3CC[C@H]12 | 17.8 µg/mL (≈ 48.3 µM) | 35 µg/mL (≈ 95 µM) | 42.9 µg/mL (≈ 116 µM) | 13.4 µg/mL (≈ 36.4 µM) | – | – | – | –
CC1(C)CCC[C@]2(C)c3cc(O)c(O)cc3C(=O)C[C@H]12 | 13.5 µg/mL (≈ 49.2 µM) | > 50 µg/mL | 36.2 µg/mL (≈ 132 µM) | 17.6 µg/mL (≈ 64.1 µM) | – | – | – | –
CC1(C)CCC[C@]2(C)c3cc(O)c(O)cc3CC[C@@H]12 (stereo in doubt) | – | – | – | – | 36.1 µg/mL (≈ 139 µM) | 36.5 µg/mL (≈ 140 µM) | 12.1 µg/mL (≈ 46.5 µM) | 42 µg/mL (≈ 161 µM)
CC1(C)CCC[C@]2(C)c3cc(O)c(O)cc3CC[C@@H]12 (stereo in doubt; 1) | – | 19.6 µg/mL (≈ 75.3 µM) | 41.2 µg/mL (≈ 158 µM) | 24.3 µg/mL (≈ 93.3 µM) | – | – | 25.1 µg/mL (≈ 96.4 µM) | –
CISPLATIN | – | – | – | – | 3.58 µg/mL | 6.53 µg/mL | 2.34 µg/mL | 5.89 µg/mL

Further lines, with some results ahead:

IC50 (CNE; [3]) | Molecule | IC50 (A549; [1]) | IC50 (MCF7; [2]) | IC50 (HeLa; [4]) | IC50 (A549; a549) | IC50 (MCF7; mcf7) | IC50 (CNE; cne) | IC50 (HeLa; hela)
7.2 µg/mL (≈ 19.5 µM) | CC1(C)CCC[C@]2(C)c3cc(OCc4ccccc4F)c(O)cc3CC[C@H]12 | 13.7 µg/mL (≈ 37.2 µM) | 12.4 µg/mL (≈ 33.7 µM) | 15.3 µg/mL (≈ 41.5 µM) | – | – | – | –
> 50 µg/mL | CC1(C)CCC[C@]2(C)c3cc(OCc4ccccc4F)c(O)cc3CC[C@@H]12 | > 50 µg/mL | > 50 µg/mL | > 50 µg/mL | – | – | – | –
3.1 µg/mL (≈ 10.3 µM) | COc1cc2c(cc1OC)[C@@]1(C)CCCC(C)(C)[C@H]1CC2=O | 26.3 µg/mL (≈ 87 µM) | 7.8 µg/mL (≈ 25.8 µM) | 12.7 µg/mL (≈ 42 µM) | – | – | – | –
25.1 µg/mL (≈ 87 µM) | COc1cc2c(cc1OC)[C@@]1(C)CCCC(C)(C)[C@@H]1CC2 | 41.7 µg/mL (≈ 145 µM) | 39.5 µg/mL (≈ 137 µM) | 41.5 µg/mL (≈ 144 µM) | – | – | – | –
5.6 µg/mL (≈ 17.7 µM) | COc1cc2c(cc1OC)[C@@]1(C)CCCC(C)(C)[C@H]1C(=O)C2=O | 33.8 µg/mL (≈ 107 µM) | 16.5 µg/mL (≈ 52.1 µM) | 16.1 µg/mL (≈ 50.9 µM) | – | – | – | –
27.2 µg/mL (≈ 70.7 µM) | CC1(C)CCC[C@]2(C)c3cc(OCc4ccc(Cl)cc4)c(O)cc3CC[C@H]12 | 46.9 µg/mL (≈ 122 µM) | > 50 µg/mL | 42.2 µg/mL (≈ 110 µM) | – | – | – | –
> 50 µg/mL | COc1cc2c(cc1OC)[C@@]1(C)CCCC(C)(C)[C@@H]1CC2=O | > 50 µg/mL | > 50 µg/mL | 25.7 µg/mL (≈ 85 µM) | – | – | – | –
> 50 µg/mL | CC1(C)CCC[C@]2(C)c3cc(OCc4ccc(Cl)cc4)c(O)cc3CC[C@@H]12 | > 50 µg/mL | > 50 µg/mL | > 50 µg/mL | – | – | – | –
4.5 µg/mL (≈ 15.6 µM) | COc1cc2c(cc1OC)[C@@]1(C)CCCC(C)(C)[C@H]1CC2 | 9.6 µg/mL (≈ 33.3 µM) | 10.9 µg/mL (≈ 37.8 µM) | 13.2 µg/mL (≈ 45.8 µM) | – | – | – | –
32.9 µg/mL (≈ 83.2 µM) | CC1(C)CCC[C@]2(C)c3cc(OCc4cccc([N+](=O)[O-])c4)c(O)cc3CC[C@H]12 | 36.4 µg/mL (≈ 92 µM) | > 50 µg/mL | > 50 µg/mL | – | – | – | –
> 50 µg/mL | CC1(C)CCC[C@]2(C)c3cc(OCc4cccc([N+](=O)[O-])c4)c(O)cc3CC[C@@H]12 | > 50 µg/mL | > 50 µg/mL | > 50 µg/mL | – | – | – | –
